In patent US11248006B2, “Macrocyclic derivative of pyrazol[3,4-d]pyrimidin-3-one, pharmaceutical composition and use thereof” (SHANGHAI DE NOVO PHARMATECH CO., LTD., priority 2017, dated 2022) one finds IC50 data, which are given here for 45 molecules.

In the first test the target is Wee1 (Homo sapiens (Human), UniProt P30291). The test is described as follows: Wee1 enzyme catalysis assay (ATP-Glo Max kinase luminescence detection kit). Format: biochemical. The settings on record: Wee1 enzymatic activity, 10 μM ATP, Poly (Lys, Tyr) substrate, 30° C. for 50 minutes. On the procedure: In the present disclosure, Wee1 enzyme catalysis assay was carried out using the ATP-Glo Max kinase luminescence detection kit (Promega). Kinase activity was assessed by quantitative detection of the amount of ATP retained in the solution following the kinase reaction. The luminescent signal in the assay is proportional to the amount of ATP and inversely proportional to the kinase activity. The concentration of the compound in the assay ranged from 0.5 nM to 30 μM. The compound was dissolved in 10% DMSO, and 5 μL of the solution was added to 50 μL of the reaction, and the concentration of DMSO in the final reaction was 1%. The reaction was carried out at 30° C. for 50 minutes. 40 mM trishydroxymetyl aminomethane, pH 7.4, 10 mM MgCl2, 0.1 mg/ml BSA, 2 mM DTT, 0.1 mg/ml Poly (Lys, Tyr) substrate, 10 μM ATP and Wee1 were contained in the reaction mixture. After the enzymatic reaction, 50 μL of ATP-Glo Max kinase luminescence detection assay solution (Promega) was added and incubated for 15 minutes at room temperature. The luminescent signal was measured using a microplate reader. In some assays, a known Wee1 inhibitor was added as a positive control. Luminance data was analyzed using Graphpad software. The difference between the luminescence intensity in the absence of Wee1 and the luminescence intensity in the presence of Wee1 was defined as 100% activity (Lut−Luc). Using the luminescence intensity signal (Lu) in the presence of the compound, the % activity was calculated as follows: % Activity={(Lut−Lu)/(Lut−Luc)}×100%, wherein, Lu=luminous intensity of the compound Non-linear regression analysis was employed to plot the dose-effect curve of % activity value and the corresponding concentrations for the series of compounds. The equation is Y=B+(TB)/1+10((Log EC50−X)×Hill Slope), Y=% activity, B=minimum activity percentage, T=maximum activity percentage, X=logarithm of compound and Hill slope=slope factor or Hill coefficient. The IC50 value was determined by the concentration of a compound that is required to obtain 50% of the maximum effect.
Chain of Wee1 (P30291 whole entry): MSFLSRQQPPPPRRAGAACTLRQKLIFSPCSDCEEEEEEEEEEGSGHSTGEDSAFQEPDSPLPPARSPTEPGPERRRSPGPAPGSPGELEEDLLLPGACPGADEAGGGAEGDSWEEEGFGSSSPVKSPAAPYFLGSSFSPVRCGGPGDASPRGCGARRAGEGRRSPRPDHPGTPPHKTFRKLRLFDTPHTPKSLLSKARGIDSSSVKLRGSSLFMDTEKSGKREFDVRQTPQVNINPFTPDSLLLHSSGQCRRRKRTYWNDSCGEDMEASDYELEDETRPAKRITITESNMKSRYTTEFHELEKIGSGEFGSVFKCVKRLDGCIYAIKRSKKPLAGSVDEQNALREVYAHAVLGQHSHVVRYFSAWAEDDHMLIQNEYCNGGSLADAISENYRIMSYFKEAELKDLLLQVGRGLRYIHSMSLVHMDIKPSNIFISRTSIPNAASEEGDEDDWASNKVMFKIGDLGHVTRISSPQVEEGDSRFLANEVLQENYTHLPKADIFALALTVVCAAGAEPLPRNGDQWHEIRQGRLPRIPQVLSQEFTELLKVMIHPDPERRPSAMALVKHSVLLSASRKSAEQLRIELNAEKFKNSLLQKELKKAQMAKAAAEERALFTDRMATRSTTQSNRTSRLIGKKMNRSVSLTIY
The IC50 is the point on the concentration scale where inhibition reaches its midpoint. Regarding `CN1CCN(c2ccc(Nc3ncc4c(=O)n5n(c4n3)-c3cccc(n3)OCCCC/C=C/C5)cc2)CC1` [Compound 1-1-1], the IC50 came out at 6.7 nM.

`CN1CCN(c2ccc(Nc3ncc4c(=O)n5n(c4n3)-c3cccc(n3)OCCC/C=C\C5)cc2)CC1` [Compound 1-1-2]: the 50% inhibitory concentration (IC50) turned out to be 32 nM.

`CN1CCN(c2ccc(Nc3ncc4c(=O)n5n(c4n3)-c3cccc(n3)OCC/C=C\C5)cc2)CC1` [Compound 1-1-3] came in with an IC50 of 7.3 nM.

The molecule `CN1CCN(c2ccc(Nc3ncc4c(=O)n5n(c4n3)-c3cccc(n3)OCCOC/C=C/C5)cc2)CC1` [Compound 1-1-4] displayed a half-maximal inhibitory concentration (IC50) of 30.2 nM.

As to `CN1CCN(c2ccc(Nc3ncc4c(=O)n5n(c4n3)-c3cccc(n3)OCC/C=C\C5)cc2CO)CC1` [Compound 1-1-5], the IC50 worked out at 6.1 nM.

Molecule `COc1cc(Nc2ncc3c(=O)n4n(c3n2)-c2cccc(n2)OCC/C=C\C4)ccc1N1CCN(C)CC1` [Compound 1-1-6] yielded an IC50 of 6.8 nM.

The molecule `CN1Cc2cc(Nc3ncc4c(=O)n5n(c4n3)-c3cccc(n3)OCCCC/C=C\C5)ccc2C2(CC2)C1` [Compound 1-2-2] yielded an IC50 of 10.3 nM.

`CN1Cc2cc(Nc3ncc4c(=O)n5n(c4n3)-c3cccc(n3)OCC/C=C\C5)ccc2C(C)(C)C1` [Compound 1-3-1] had a concentration for half-maximal inhibition (IC50) of 8.1 nM.

For `CN1Cc2ccc(Nc3ncc4c(=O)n5n(c4n3)-c3cccc(n3)OCCOC/C=C/C5)cc2C(C)(C)C1` [Compound 1-3-2], inhibition was half-maximal at 23.8 nM (IC50).

Molecule `CC(=O)N1CCCCC=CCn2c(=O)c3cnc(Nc4ccc(N5CCN(C)CC5)cc4)nc3n2-c2cccc1n2` [Compound 2-1-1] displayed an IC50 of 75.2 nM.

For `CC(=O)N1CCCCC=CCn2c(=O)c3cnc(Nc4ccc(N5CCN(C)CC5)cc4)nc3n2-c2cccc1n2` [Compound 2-1-2], the IC50 was determined as 62.5 nM.

The molecule `CC(=O)N1CC/C=C\Cn2c(=O)c3cnc(Nc4ccc5c(c4)CN(C)CC5(C)C)nc3n2-c2cccc1n2` [Compound 2-3-1] returned a half-maximal inhibitory concentration (IC50) of 10.7 nM.

As for `CC(=O)N1CCC/C=C\Cn2c(=O)c3cnc(Nc4ccc5c(c4)CN(C)CC5(C)C)nc3n2-c2cccc1n2` [Compound 2-3-2], half-maximal inhibition (IC50) required 16.4 nM.

`CN1Cc2cc(Nc3ncc4c(=O)n5n(c4n3)-c3ccc4c(n3)N(CCCC/C=C/C5)C(=O)CO4)ccc2C2(CC2)C1` [Compound 3-2-1] returned an IC50 of 21 nM.

Take `CCN1Cc2cc(Nc3ncc4c(=O)n5n(c4n3)-c3ccc4c(n3)N(CCC/C=C\C5)C(=O)CO4)ccc2C2(CC2)C1` [Compound 3-2-5]: the 50% inhibitory concentration (IC50) is 7.7 nM.

`O=C1COc2ccc3nc2N1CCC/C=C\Cn1c(=O)c2cnc(Nc4ccc5c(c4)CN(CC(F)F)CC54CC4)nc2n1-3` [Compound 3-2-8] came in with a half-maximal inhibitory concentration (IC50) of 9 nM.

On to `CC1CN(c2ccc(Nc3ncc4c(=O)n5n(c4n3)-c3ccc4c(n3)N(CCC/C=C\C5)C(=O)CO4)cc2)CCN1C` (stereo not shown) [Compound 3-3-3], for which the IC50 worked out at 5.7 nM.

The molecule `CN1C[C@@H]2C[C@H]1CN2c1ccc(Nc2ncc3c(=O)n4n(c3n2)-c2ccc3c(n2)N(CCC/C=C\C4)C(=O)CO3)cc1` [Compound 3-3-4] displayed an IC50 of 8.6 nM.

In the case of `COc1cc(Nc2ncc3c(=O)n4n(c3n2)-c2ccc3c(n2)N(CCC/C=C\C4)C(=O)CO3)ccc1N1CCN(C)C(C)C1` (stereo not shown) [Compound 3-3-5], 4.8 nM corresponded to half-maximal inhibition (IC50).

On to `CN1CCN(Cc2ccc(Nc3ncc4c(=O)n5n(c4n3)-c3ccc4c(n3)N(CCC/C=C\C5)C(=O)CO4)cc2)CC1` [Compound 3-3-6], for which the IC50 was 24.8 nM.

Molecule `CN1CCN(c2ccc(Nc3ncc4c(=O)n5n(c4n3)-c3ccc4c(n3)N(CCC/C=C\C5)C(=O)CO4)cc2F)CC1` [Compound 3-3-8] came in with an IC50 of 7.6 nM.

For the molecule `Cc1cc(Nc2ncc3c(=O)n4n(c3n2)-c2ccc3c(n2)N(CCCC=CC4)C(=O)CO3)ccc1N1CCN(C)CC1` [Compound 3-3-9], the IC50 amounted to 6.3 nM.

Molecule `O=C1COc2ccc3nc2N1CCC/C=C\Cn1c(=O)c2cnc(Nc4ccc(N5CCN6CCCC6C5)cc4)nc2n1-3` (stereo not shown) [Compound 3-3-10] had a 50% inhibitory concentration (IC50) of 8.8 nM.

In turn, `COc1cc(Nc2ncc3c(=O)n4n(c3n2)-c2ccc3c(n2)N(CCC/C=C/C4)C(=O)CO3)ccc1N1CCN(C)CC1` [Compound 3-3-11] returned an IC50 of 6.5 nM. This IC50 and that of the molecule before are within 1.5-fold of each other.

In turn, `CN1CCN(C)c2ccc(Nc3ncc4c(=O)n5n(c4n3)-c3ccc4c(n3)N(CCC/C=C\C5)C(=O)CO4)cc2C1` [Compound 3-4-1] registered an IC50 of 9.4 nM. This IC50 and that of the molecule before are within 1.5-fold of each other.

`CN1CCOc2ccc(Nc3ncc4c(=O)n5n(c4n3)-c3ccc4c(n3)N(CCC/C=C\C5)C(=O)CO4)cc2C1` [Compound 3-4-2] yielded an IC50 of 8.2 nM.

Molecule `CN1Cc2cc(Nc3ncc4c(=O)n5n(c4n3)-c3ccc4c(n3)N(CCC/C=C\C5)C(=O)CO4)ccc2C1=O` [Compound 3-6-1] gave a 50% inhibitory concentration (IC50) of 16.2 nM.

As to `CN(C)CCn1ccc2cc(Nc3ncc4c(=O)n5n(c4n3)-c3ccc4c(n3)N(CCC/C=C\C5)C(=O)CO4)ccc21` [Compound 3-7-1], inhibition was half-maximal at 7.6 nM (IC50).

Regarding `CN1CCCC(n2ccc3cc(Nc4ncc5c(=O)n6n(c5n4)-c4ccc5c(n4)N(CCC/C=C\C6)C(=O)CO5)ccc32)C1` (stereo not shown) [Compound 3-7-2], the IC50 was found to be 18.2 nM.

`COC(=O)N1CCC(n2ccc3cc(Nc4ncc5c(=O)n6n(c5n4)-c4ccc5c(n4)N(CCC/C=C\C6)C(=O)CO5)ccc32)CC1` [Compound 3-7-4] yielded a half-maximal inhibitory concentration (IC50) of 36.6 nM.

In turn, `CC(C)N1CCC(n2ncc3cc(Nc4ncc5c(=O)n6n(c5n4)-c4ccc5c(n4)N(CCC/C=C\C6)C(=O)CO5)ccc32)CC1` [Compound 3-7-14] came in with an IC50 of 6.5 nM. This IC50 is about 5.6-fold lower than that of the molecule before.

The molecule `CN1Cc2cc(Nc3ncc4c(=O)n5n(c4n3)-c3ccc4c(c3)N(CCC/C=C\C5)C(=O)CO4)ccc2C2(CC2)C1` [Compound 4-1-1] showed an IC50 of 5.1 nM.

Molecule `COc1cc(Nc2ncc3c(=O)n4n(c3n2)-c2ccc3c(n2)N(CCC/C=C\C4)C(=O)CC3)ccc1N1CCN(C)CC1` [Compound 5-1-1] displayed a half-maximal inhibitory concentration (IC50) of 7.5 nM.

Molecule `CN(C)CCn1ccc2cc(Nc3ncc4c(=O)n5n(c4n3)-c3cccc(n3)C(C)(O)CCC/C=C\C5)ccc21` (stereo not shown) [Compound 6-1-1] showed a half-inhibitory concentration (IC50) of 155 nM. This IC50 lies about 21-fold higher than the previous one.

For `CN1Cc2cc(Nc3ncc4c(=O)n5n(c4n3)-c3ccc4c(n3)N(CCC/C=C\C5)C(=O)C(C)(C)O4)ccc2C2(CC2)C1` [Compound 7-1-1], inhibition was half-maximal at 12.9 nM (IC50).

The molecule `CN1Cc2cc(Nc3ncc4c(=O)n5n(c4n3)-c3ccc4c(n3)N(CCO4)C(=O)CC/C=C\C5)ccc2C(C)(C)C1` [Compound 8-1-1] yielded an IC50 of 20.1 nM. This IC50 lies about 1.6-fold higher than the previous one.

Regarding `CN1Cc2cc(Nc3ncc4c(=O)n5n(c4n3)-c3ccc4c(n3)N(CCC/C=C\C5)CCO4)ccc2C2(CC2)C1` [Compound 8-2-1], the IC50 came to 11.6 nM. This IC50 lies about 1.7-fold lower than the previous one.

The molecule `COc1cc(Nc2ncc3c(=O)n4n(c3n2)-c2ccc3c(n2)N(CCC/C=C\C4)CCO3)ccc1N1CCN(C)CC1` [Compound 8-2-2] yielded a half-maximal inhibitory concentration (IC50) of 13 nM.

Regarding `CN1Cc2cc(Nc3ncc4c(=O)n5n(c4n3)-c3ccc4c(n3)N(CCO4)C(=O)OC/C=C\C5)ccc2C2(CC2)C1` [Compound 8-3-1], half-maximal inhibition (IC50) required 16.3 nM.

With `CN1Cc2cc(Nc3ncc4c(=O)n5n(c4n3)-c3cccc(n3)N(C)CCC/C=C\C5)ccc2C(C)(C)C1` [Compound 9-1-1], the IC50 worked out at 11.8 nM.

Turning to `COc1cc(Nc2ncc3c(=O)n4n(c3n2)-c2ccc3c(n2)N(CCCC#CC4)C(=O)CO3)ccc1N1CCN(C)CC1` [Compound 10-1-3], the IC50 is 8.4 nM.

Molecule `COc1cc(Nc2ncc3c(=O)n4n(c3n2)-c2ccc3c(n2)N(CCC#CC4)C(=O)CO3)ccc1N1CCN(C)CC1` [Compound 10-1-5] yielded a half-inhibitory concentration (IC50) of 11.7 nM.

Another test concerns Human osteosarcoma cell line MG63. The test is described as follows: Cell proliferation assay (CCK-8 cell viability). Format: cell-based. Particulars: CCK-8, 72 hours incubation. On the procedure: In the present disclosure, cell assays were used to assess the biological activity of the compound. Human osteosarcoma cell line MG63 (ATCC CRL-1427) was cultured in a 96-well plate of Dulbecco's Modified Eagle's medium, supplemented with 10% fetal bovine serum and 1% (v/v) L-glutamine, and the cultivation environment was 37° C. and 5% CO2. Compound concentrations ranged from 4.5 nM to 30 μM. The Wee1 inhibitor stock solution was dissolved in DMSO, added to the medium with an indicated concentration and incubated for 72 hours. Negative control cells were only treated with vehicle. In some assays, a known Wee1 inhibitor was added as a positive control. Cell viability was measured using a Cell Counting Kit-8 (CCK-8, Sigma-Aldrich) under the instruction of the product specification. The data was analyzed using Graphpad software to obtain a fitted curve of IC50 values against the compounds.
Molecule `CN1CCN(c2ccc(Nc3ncc4c(=O)n5n(c4n3)-c3cccc(n3)OCCCC/C=C/C5)cc2)CC1` [Compound 1-1-1] registered an IC50 of 2400 nM.

Still in this test, the particulars now being: Homo sapiens, MG-63, 72 h, CCK-8, 72 hours incubation.
For `C=CCn1c(=O)c2cnc(Nc3ccc(N4CCN(C)CC4)cc3)nc2n1-c1cccc(C(C)(C)O)n1` [AZD1775, 2-allyl-1-(6-(2-hydroxypropan-2-yl)pyridin-2-yl)-6-((4-(4-methylpiperazin-1-yl)phenyl)amino)-1H-pyrazolo[3,4-d]pyrimidin-3 (2H)-one, reference compound], the IC50 worked out at 785 nM.

Consider `CN1CCN(c2cc(Nc3ncc4c(=O)n5n(c4n3)-c3ccc4c(n3)N(CCC/C=C\C5)C(=O)CO4)cc3ccoc23)CC1` [Compound 3-7-17], for which 270 nM corresponded to half-maximal inhibition (IC50).

Take `CN1CCN(c2ccc3cc(Nc4ncc5c(=O)n6n(c5n4)-c4ccc5c(n4)N(CCC/C=C\C6)C(=O)CO5)ccc3c2)CC1` [Compound 3-8-1]: 160 nM corresponded to half-maximal inhibition (IC50).
